# Measured values: ChEMBL document CHEMBL1201862, “PubChem BioAssay data set” (2004)
#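 Method: 48-hour compound exposure of cells in 96-well plates, five concentrations, linear interpolation of endpoints. The concentration for 50% growth inhibition is given as GI50.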 Activity calls are given as the source filed them. Cut-off read from the data, not from the text of the source: active = GI50 up to about 1.1 µM and inactive = higher.
# Assays:
# Assay in all cases: NCI tumour cell line growth inhibition, 48 h
# [1] = system: SNB-75
# [2] = system: OVCAR-3
# [3] = system: A498
# [4] = system: CAKI-1
# [5] = system: EKVX
# [6] = system: COLO 205
# [7] = system: XF498
# [8] = system: NCI-H522
# [9] = system: MOLT-4
# [10] = system: SK-MEL-5
# [11] = system: HCC 2998
# [12] = system: 786-0
# [13] = system: TK-10
# [14] = system: M14
# [15] = system: KM12
# [16] = system: LOX IMVI
# [17] = system: SF-539
# [18] = system: NCI-H23
SMILES,GI50 [1],GI50 [2],GI50 [3],GI50 [4],GI50 [5],GI50 [6],GI50 [7],GI50 [8],GI50 [9],GI50 [10],GI50 [11],GI50 [12],GI50 [13],GI50 [14],GI50 [15],GI50 [16],GI50 [17],GI50 [18]
COc1ccc(C(=O)OC2C=COC(C)C2OC(=O)c2ccc(OC)cc2)cc1 (configuration not stated),12.4 µM (inactive),16.6 µM (inactive),> 100 µM (inactive),28.8 µM (inactive),36.9 µM (inactive),42.8 µM (inactive),> 45 µM (inactive),16.5 µM (inactive),16.3 µM (inactive),16.7 µM (inactive),> 58.1 µM (inactive),28.8 µM (inactive),52.6 µM (inactive),16.6 µM (inactive),19.1 µM (inactive),14.7 µM (inactive),18 µM (inactive),16.4 µM (inactive)
CCCCCCCCCCCCCCCCCC(=O)NCC(COP(=O)([O-])OCC[N+](C)(C)C)OC (configuration not stated),5 µM (inactive),3.37 µM (inactive),3.03 µM (inactive),2.44 µM (inactive),16.3 µM (inactive),1.48 µM (inactive),2.71 µM (inactive),,1.76 µM (inactive),15.2 µM (inactive),1.05 µM (active),1.5 µM (inactive),1.56 µM (inactive),11.5 µM (inactive),0.766 µM (active),10.6 µM (inactive),17.6 µM (inactive),14.3 µM (inactive)
COc1ccc(/C=C/C(=O)C(C)(C)CN2CCCCC2)cc1,12.4 µM (inactive),18.2 µM (inactive),16.9 µM (inactive),,44.7 µM (inactive),15.6 µM (inactive),16.5 µM (inactive),14 µM (inactive),21.8 µM (inactive),19 µM (inactive),18.3 µM (inactive),16 µM (inactive),20.8 µM (inactive),18.2 µM (inactive),22.1 µM (inactive),14.9 µM (inactive),19.8 µM (inactive),24.5 µM (inactive)
CC(=O)N(C)c1ccc2c(ccc[n+]2[O-])c1[N+](=O)[O-],> 100 µM (inactive),> 100 µM (inactive),> 100 µM (inactive),> 100 µM (inactive),> 100 µM (inactive),> 100 µM (inactive),> 100 µM (inactive),,> 100 µM (inactive),> 100 µM (inactive),> 100 µM (inactive),> 100 µM (inactive),> 100 µM (inactive),> 100 µM (inactive),> 100 µM (inactive),> 100 µM (inactive),> 100 µM (inactive),> 100 µM (inactive)
[O-]/[N+](=C\c1ccccc1)[C@H](COCc1ccccc1)c1ccccc1,74.3 µM (inactive),27.6 µM (inactive),> 100 µM (inactive),,25.1 µM (inactive),> 100 µM (inactive),27.8 µM (inactive),29.5 µM (inactive),36.5 µM (inactive),63.1 µM (inactive),> 100 µM (inactive),> 100 µM (inactive),> 100 µM (inactive),,70.3 µM (inactive),> 100 µM (inactive),> 100 µM (inactive),4.45 µM (inactive)
CCCCCCCCCCCCC/C=C1\C[C@H](O)COC1=O,15.9 µM (inactive),17.5 µM (inactive),18.9 µM (inactive),18.9 µM (inactive),17.5 µM (inactive),,16.3 µM (inactive),17.1 µM (inactive),,13.7 µM (inactive),20.9 µM (inactive),16 µM (inactive),17.6 µM (inactive),15 µM (inactive),16.3 µM (inactive),,19.8 µM (inactive),20.4 µM (inactive)
CC(=O)NNc1nc(C)c(C(=O)NNC(=O)C(=O)Nc2ccc(Cl)c([N+](=O)[O-])c2)s1,,30.4 µM (inactive),,> 100 µM (inactive),> 100 µM (inactive),> 100 µM (inactive),42.6 µM (inactive),26.2 µM (inactive),20 µM (inactive),> 100 µM (inactive),66.1 µM (inactive),50 µM (inactive),> 100 µM (inactive),> 100 µM (inactive),88.9 µM (inactive),31.3 µM (inactive),53 µM (inactive),37.7 µM (inactive)
Cc1ccc(Nc2nc(C)c(C(/C=C/c3ccc4c(c3)OCO4)=N/Nc3ccc([N+](=O)[O-])cc3[N+](=O)[O-])s2)c([N+](=O)[O-])c1,56.8 µM (inactive),35.2 µM (inactive),,25.1 µM (inactive),24.5 µM (inactive),56.5 µM (inactive),22.1 µM (inactive),14.2 µM (inactive),21.7 µM (inactive),,28.6 µM (inactive),91.2 µM (inactive),37.8 µM (inactive),61.7 µM (inactive),24 µM (inactive),16.3 µM (inactive),36.3 µM (inactive),33.2 µM (inactive)
